Experimental findings from ChEMBL document CHEMBL3046936, “In vitro inhibition studies of phytoene desaturase by bleaching ketomorpholine derivatives” (J Agric Food Chem, 2001) are described below.

pIC50: −log10 of the molar value. Active and inactive are the calls of the source. The calls are words filed in the database; no cut-off is given here. Where only a bound is given, the exact number is not on record here.

The subject of one test is Senna obtusifolia. Nature of the test: Preemergence herbicidal activity against Senna obtusifolia (sicklepod) after 20 days. Type of test: functional.
In the next test the test system is Chenopodium album. In words: Pre-emergence herbicidal activity against Chenopodium album after 20 days. Type of test: functional.
In the next test the test system is Amaranthus retroflexus. In words: Pre-emergence herbicidal activity against Amaranthus retroflexus after 20 days. Type of test: functional.
In a further test the test system is Abutilon theophrasti. In words: Preemergence herbicidal activity against Abutilon theophrasti (velvetleaf) after 20 days. Type of test: functional.
For another test, the system named is Xanthium strumarium. In words: Pre-emergence herbicidal activity against Xanthium strumarium (cocklebur) after 20 days. Type of test: functional.
A further test relates to Ipomoea hederacea. Nature of the test: Pre-emergence herbicidal activity against Ipomoea hederacea (ivy-leaved morning glory) after 20 days. The test is classed as functional.
For another test, the system named is Galium aparine. In words: Pre-emergence herbicidal activity against Galium aparine after 20 days. The test is classed as functional.
Test [1] can be described thus: Ratio of ED50 for Xanthium strumarium to ED50 for Chenopodium album. Type of test: functional.
A short description of test [2]: Ratio of ED50 for Xanthium strumarium to ED50 for Galium aparine. The test is classed as functional.
Test [3] is described as follows: Ratio of ED50 for Xanthium strumarium to ED50 for Cassia obtusifolia. Type of test: functional.
In test [4] the target is 15-cis-phytoene desaturase (Synechococcus elongatus (strain PCC 7942) (Anacystis nidulans R2), UniProt P26294). Nature of the test: Inhibition of Synechococcus PCC 7942 phytoene desaturase expressed in Escherichia coli JM 101 by HPLC analysis. The settings on record: read-out: I50.
Sequence of 15-cis-phytoene desaturase (P26294 whole entry): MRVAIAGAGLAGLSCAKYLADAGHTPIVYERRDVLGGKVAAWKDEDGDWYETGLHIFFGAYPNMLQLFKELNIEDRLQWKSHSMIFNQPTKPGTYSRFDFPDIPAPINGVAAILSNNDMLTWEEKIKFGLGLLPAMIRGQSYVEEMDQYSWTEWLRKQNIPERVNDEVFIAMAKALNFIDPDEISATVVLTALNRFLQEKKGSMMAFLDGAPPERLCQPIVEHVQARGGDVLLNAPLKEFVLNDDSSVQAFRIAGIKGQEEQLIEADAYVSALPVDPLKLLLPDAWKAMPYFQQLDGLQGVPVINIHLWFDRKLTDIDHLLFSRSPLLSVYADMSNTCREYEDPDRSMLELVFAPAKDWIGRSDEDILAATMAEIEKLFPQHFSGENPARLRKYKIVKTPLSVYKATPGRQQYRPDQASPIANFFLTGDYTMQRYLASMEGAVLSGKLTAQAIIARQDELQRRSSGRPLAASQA
In test [5] the target is 15-cis-phytoene desaturase (Synechococcus elongatus (strain PCC 7942) (Anacystis nidulans R2)) (UniProt P26294). In words: Non-competitive inhibition of Synechococcus PCC 7942 phytoene desaturase expressed in Escherichia coli JM 101 by Lineweaver-Burk plot analysis.
Sequence of 15-cis-phytoene desaturase (Synechococcus elongatus (strain PCC 7942) (Anacystis nidulans R2)) (P26294 whole entry): as above
Test [6] shares this target. In words: Inhibition of Synechococcus PCC 7942 phytoene desaturase expressed in Escherichia coli JM 101 assessed as decrease in zeta-carotene content by HPLC analysis.

For `CN1CCOC(Cc2cccc(C(F)(F)F)c2)C1=O` (racemic), the ED50 in the test with Senna obtusifolia is listed as 500 g/ha; with Chenopodium album, 450 g/ha; in the test on Amaranthus retroflexus, 1250 g/ha; with Abutilon theophrasti it was 1400 g/ha; in the test on Xanthium strumarium it was 8900 g/ha; in the test with Ipomoea hederacea, 500 g/ha. This compound showed an ED50 in the test with Galium aparine of 500 g/ha. Also, the Ratio ED50 in [1], in test [2] and in test [3] was 15 throughout. Moreover, the pIC50 in test [4] is under 4.00.

Take `O=C1NCCOC1Cc1cccc(C(F)(F)F)c1` (racemic): the ED50 with Senna obtusifolia stood at 350 g/ha; in the test with Chenopodium album, 140 g/ha; in the test with Amaranthus retroflexus, 80 g/ha; in the test on Abutilon theophrasti it was 150 g/ha; in the test with Xanthium strumarium, 800 g/ha; in the test on Ipomoea hederacea, 380 g/ha. This compound gave an ED50 with Galium aparine of 380 g/ha. For the same compound, the pIC50 in test [4] was 5.19.

For the compound `O=C1NCCOC1SCc1cccc(C(F)(F)F)c1` (racemic), the ED50 in the test on Senna obtusifolia, in the test with Chenopodium album, in the test on Amaranthus retroflexus, in the test on Abutilon theophrasti, with Xanthium strumarium and with Ipomoea hederacea was over 10000 g/ha in each case. For the same compound, in the test on Galium aparine, the ED50 was over 10000 g/ha. Besides, in [4], the pIC50 was 5.49.

Consider `C[C@@H]1CO[C@@H](Cc2cccc(C(F)(F)F)c2)C(=O)N1`, for which the ED50 in the test on Senna obtusifolia is reported as over 10000 g/ha; in the test on Chenopodium album, over 10000 g/ha; in the test with Amaranthus retroflexus, over 10000 g/ha; with Xanthium strumarium, over 10000 g/ha; in the test on Ipomoea hederacea, 4000 g/ha; with Galium aparine, 4000 g/ha. Moreover, the pIC50 in test [4] is 4.72.

With `O=C1NCCOC1Sc1cccc(C(F)(F)F)c1` (racemic), the ED50 in the test with Senna obtusifolia was 2500 g/ha; in the test with Chenopodium album it was 850 g/ha; in the test with Amaranthus retroflexus it was 780 g/ha; in the test on Abutilon theophrasti, 1000 g/ha; in the test on Xanthium strumarium, over 10000 g/ha; in the test on Ipomoea hederacea, 4800 g/ha. In the test with Galium aparine, the ED50 turned out to be 4800 g/ha. In test [4], the pIC50 was 5.07.

Take `C[C@H]1CO[C@@H](Cc2cccc(C(F)(F)F)c2)C(=O)N1`: the ED50 in the test on Senna obtusifolia is 1550 g/ha; in the test with Chenopodium album, 500 g/ha; in the test with Amaranthus retroflexus, 600 g/ha; in the test on Abutilon theophrasti, 500 g/ha; in the test on Xanthium strumarium, 2300 g/ha; in the test on Ipomoea hederacea it was 1500 g/ha. For the same compound, the ED50 in the test on Galium aparine worked out at 1500 g/ha. Also, the pIC50 in test [4] is 5.42.

With `CN1CCOC(c2cccc(C(F)(F)F)c2)C1=O` (racemic), the ED50 in the test on Senna obtusifolia is listed as over 10000 g/ha; with Chenopodium album, 10000 g/ha; in the test on Amaranthus retroflexus, over 10000 g/ha; in the test on Abutilon theophrasti, 5500 g/ha; in the test on Xanthium strumarium it was 9500 g/ha; in the test with Ipomoea hederacea, over 10000 g/ha. Besides, in the test with Galium aparine, the ED50 was over 10000 g/ha. In [4], the pIC50 is under 4.00.

As to `C[C@H]1CO[C@H](Cc2cccc(C(F)(F)F)c2)C(=O)N1`, the ED50 is on record as 200 g/ha in the test with Senna obtusifolia; 25 g/ha with Chenopodium album; 50 g/ha in the test on Amaranthus retroflexus; 50 g/ha in the test on Abutilon theophrasti; 340 g/ha in the test with Xanthium strumarium; 130 g/ha in the test on Ipomoea hederacea. The same compound displayed an ED50 in the test with Galium aparine of 130 g/ha. The inhibition result in [5] and in test [6] was “Active” in each case. Besides, in test [4], the pIC50 is 6.77.
